In patent US10506809B2, “Herbicidal combination comprising saflufenacil and glufosinate” (BASF SE, priority 2015, dated 2019):
Read-outs that look alike come from different tables or passages of the source.

Experiments:
Assay type in all cases: in vivo
Brachiaria platyphylla = experiment: Greenhouse post-emergence herbicidal activity on BRAPP (broadleaf signalgrass)
Source text: (§1) The test plants were first grown to a height of 3 to 20 cm, depending on the plant habit, and only then treated (post-emergence treatment). Here, the herbicidal combinations were suspended, emulsified or dissolved in water as distribution medium and afterwards applied by spraying, using finely distributing nozzles.
(§2) The herbicides A, B and C were used as commercially available formulations and introduced to the spray liquor with the amount of solvent system used for applying the active compound. In the examples, the solvent used was water.
The test period extended over 20 days. During this time, the plants were tended, and their response to the treatments with active compounds was evaluated. […]
The value E, which is to be expected if the activity of the individual compounds is just additive, was calculated using the method of S. R. Colby (1967) “Calculating synergistic and antagonistic responses of herbicide combinations”, Weeds 15, p. […] For two component mixtures the value E was calculated by the following formula E=X+Y−(X·Y/100) where • X=effect in percent using a mixture of herbicides A and B at application rates a and b, respectively; • Y=effect in percent using herbicide C at an application rate c; • E=expected effect (in %) of A+B+C at application rates a+b+c.
If the value observed in this manner is higher than the value E calculated according to Colby, a synergistic effect is present. […]

Amaranthus retroflexus = experiment: Greenhouse post-emergence herbicidal activity on AMARE (pig weed)
Source text: as §1, §2
(§3) The test period extended over 20 days. During this time, the plants were tended, and their response to the treatments with active compounds was evaluated.
(§4) The evaluation for the damage caused by the chemical compositions was carried out using a scale from 0 to 100%, compared to the untreated control plants. Here, 0 means no damage and 100 means complete destruction of the plants.
(§5) The plants used in the greenhouse experiments belonged to the following species:
(§6) The value E, which is to be expected if the activity of the individual compounds is just additive, was calculated using the method of S. R. Colby (1967) “Calculating synergistic and antagonistic responses of herbicide combinations”, Weeds 15, p. 22 ff. For two component mixtures the value E was calculated by the following formula E=X+Y−(X·Y/100) where • X=effect in percent using a mixture of herbicides A and B at application rates a and b, respectively; • Y=effect in percent using herbicide C at an application rate c; • E=expected effect (in %) of A+B+C at application rates a+b+c.
(§7) If the value observed in this manner is higher than the value E calculated according to Colby, a synergistic effect is present.
(§8) Tables 1 to 21 relate to the herbicidal activities of the binary mixture of herbicides A and B, of herbicide C individually and of their combinations in post-emergence application assessed 20 days after treatment (20 DAT).

Setaria viridis = experiment: Greenhouse post-emergence herbicidal activity on SETVI (green foxtail)
Source text: as §1, §2, §3, §4, §5, §6, §7, §8

Digitaria sanguinalis = experiment: Greenhouse post-emergence herbicidal activity on DIGSA (large crabgrass)
Source text: as §1, §2, §3, §4, §5, §6, §7, §8

Brachiaria decumbens = experiment: Greenhouse post-emergence herbicidal activity on BRADC (Surinam grass)
Source text: as §1, §2, §3, §4, §5, §6, §7, §8

Abutilon theophrasti = experiment: Greenhouse post-emergence herbicidal activity on ABUTH (velvetleaf)
Source text: as §1, §2, §3, §4, §5, §6, §7, §8

Solanum nigrum = experiment: Greenhouse post-emergence herbicidal activity on SOLNI (black nightshade)
Source text: as §1, §2, §3, §4, §5, §6, §7, §8

Avena fatua = experiment: Greenhouse post-emergence herbicidal activity on AVEFA (common wild oat)
Source text: as §1, §2, §3, §4, §5, §6, §7, §8

Echinochloa crus-galli = experiment: Greenhouse post-emergence herbicidal activity on ECHCG (barnyard grass)
Source text: as §1, §2, §3, §4, §5, §6, §7, §8

[1] = solo C 2,4-D LV ester 6.25 g ai/ha
[2] = solo C S-metolachlor 150.0 g ai/ha
[3] = Abutilon theophrasti, 480 h, ABUTH, solo C 20.0 g ai/ha, 20 DAT, read-out: % activity 20 DAT

CCCCC(CC)COC(=O)COc1ccc(Cl)cc1Cl (stereo not drawn) [2,4-D LV ester, 2,4-D]
% activity 20 DAT (Brachiaria platyphylla; [1]): 10%
% activity 20 DAT (Amaranthus retroflexus; [1]): 45%

CCc1cccc(C)c1N(C(=O)CCl)[C@@H](C)COC [S-metolachlor, S-Metolachlor]
% activity 20 DAT (Setaria viridis; solo C S-metolachlor 300.0 g ai/ha, SETVI): 60%
% activity 20 DAT (Digitaria sanguinalis; [2]): 0%
% activity 20 DAT (Brachiaria decumbens; [2]): 0%
% activity 20 DAT (Abutilon theophrasti; solo C S-metolachlor 150.0 g ai/ha, ABUTH): 10%

CCOCN(C(=O)CCl)c1c(C)cccc1CC [acetochlor, Acetochlor]
inhibition at 12.5 g/ha (Abutilon theophrasti; Abutilon theophrasti, 480 h, solo C acetochlor 12.5 g ai/ha, ABUTH, read-out: % activity 20 DAT): 10%

CCNc1nc(Cl)nc(NC(C)C)n1 [atrazin, Atrazin]
inhibition at 6.25 g/ha (Solanum nigrum; Solanum nigrum, 480 h, solo C atrazin 6.25 g ai/ha, read-out: % activity 20 DAT): 35%

CS(=O)(=O)c1ccc(C(=O)C2=C(Sc3ccccc3)C3CCC(C3)C2=O)c(Cl)c1 (stereo not drawn) [benzobicyclon, Benzobicyclon]
% activity 20 DAT (Digitaria sanguinalis; solo C 20.0 g ai/ha, 20 DAT): 60%
% activity 20 DAT (Avena fatua; solo C 10.0 g ai/ha): 10%
% activity 20 DAT (Abutilon theophrasti; ABUTH, solo C 20.0 g ai/ha, 20 DAT): 90%
% activity 20 DAT (Amaranthus retroflexus; solo C 20.0 g ai/ha, 20 DAT): 60%

COc1c(Cl)ccc(Cl)c1C(=O)O [dicamba, Dicamba]
inhibition at 8.75 g/ha (Setaria viridis; Setaria viridis, 480 h, read-out: % activity 20 DAT): 15%
inhibition at 17.5 g/ha (Abutilon theophrasti; Abutilon theophrasti, 480 h, solo C dicamba 17.5 g ai/ha, ABUTH, read-out: % activity 20 DAT): 70%

CCOc1nc(F)cc2nc(S(=O)(=O)Nc3c(Cl)cccc3Cl)nn12 [diclosulam, Diclosulam]
% activity 20 DAT (Setaria viridis; solo C diclosulam 0.5 g ai/ha, SETVI): 35%
% activity 20 DAT (Solanum nigrum; solo C diclosulam 0.25 g ai/ha): 25%

COC[C@H](C)N(C(=O)CCl)c1c(C)csc1C [dimethenamid-P, Dimethenamid-P]
% activity 20 DAT (Solanum nigrum; solo C dimethenamid-P 18.75 g ai/ha): 10%

C#CCN1C(=O)COc2cc(F)c(N3C(=O)C4=C(CCCC4)C3=O)cc21 [flumioxazin, Flumioxazin]
inhibition at […] (Setaria viridis; Setaria viridis, 480 h, solo C flumioxazin 0.25 g ai/ha, SETVI, read-out: % activity 20 DAT): 60%
inhibition at 0.125 g/ha (Abutilon theophrasti; Abutilon theophrasti, 480 h, solo C flumioxazin 0.125 g ai/ha, ABUTH, read-out: % activity 20 DAT): 80%

Nc1c(Cl)c(F)nc(OCC(=O)O)c1Cl [fluroxypyr, Fluroxypyr]
% activity 20 DAT (Avena fatua; solo C 10.0 g ai/ha): 0%
pest or weed control at 20 g/ha (Abutilon theophrasti; [3]): 50%

CS(=O)(=O)c1cc(C(F)(F)F)ccc1C(=O)c1cnoc1C1CC1 [isoxaflutole, Isoxaflutole]
inhibition at 1 g/ha (Brachiaria platyphylla; Urochloa platyphylla, 480 h, solo C isoxaflutole 1.0 g ai/ha, read-out: % activity 20 DAT): 25%
inhibition at 0.5 g/ha (Amaranthus retroflexus; Amaranthus retroflexus, 480 h, solo C isoxaflutole 0.5 g ai/ha, read-out: % activity 20 DAT): 55%

CS(=O)(=O)c1ccc(C(=O)C2C(=O)CCCC2=O)c([N+](=O)[O-])c1 [mesotrione, Mesotrione]
inhibition at […] (Setaria viridis; Setaria viridis, 480 h, solo C mesotrione 2.5 g ai/ha, SETVI, read-out: % activity 20 DAT): 25%
inhibition at 1.25 g/ha (Solanum nigrum; Solanum nigrum, 480 h, solo C mesotrione 1.25 g ai/ha, read-out: % activity 20 DAT): 85%

CCC(CC)Nc1c([N+](=O)[O-])cc(C)c(C)c1[N+](=O)[O-] [pendimethalin, Pendimethalin]
inhibition at 150 g/ha (Setaria viridis; Setaria viridis, 480 h, solo C pendimethalin 150.0 g ai/ha, SETVI, read-out: % activity 20 DAT): 25%
inhibition at 75 g/ha (Amaranthus retroflexus; Amaranthus retroflexus, 480 h, solo C pendimethalin 75.0 g ai/ha, read-out: % activity 20 DAT): 55%

Cc1nn(C)c(O)c1C(=O)c1ccc(C(F)(F)F)cc1S(C)(=O)=O [pyrasulfotole, Pyrasulfotole]
% activity 20 DAT (Digitaria sanguinalis; solo C 5.0 g ai/ha, 20 DAT): 35%
% activity 20 DAT (Echinochloa crus-galli; solo C 2.5 g ai/ha): 80%
% activity 20 DAT (Brachiaria decumbens; solo C 5.0 g ai/ha, 20 DAT): 0%

Cc1ccc(S(=O)(=O)Oc2c(C(=O)c3ccc(Cl)cc3Cl)c(C)nn2C)cc1 [pyrazolynate, Pyrazolynate]
% activity 20 DAT (Digitaria sanguinalis; solo C 10.0 g ai/ha, 20 DAT): 0%
% activity 20 DAT (Brachiaria decumbens; solo C 10.0 g ai/ha, 20 DAT): 0%
pest or weed control at 20 g/ha (Abutilon theophrasti; [3]): 25%

O=C(O)c1c(Cl)ccc2cc(Cl)cnc12 [quinclorac, Quinclorac]
inhibition at 5 g/ha (Echinochloa crus-galli; Echinochloa crus-galli, 480 h, solo C quinclorac 5.0 g ai/ha, read-out: % activity 20 DAT): 0%
inhibition at 5 g/ha (Avena fatua; Avena fatua, 480 h, solo C quinclorac 5.0 g ai/ha, read-out: % activity 20 DAT): 0%

Cc1nn(-c2cc(NS(C)(=O)=O)c(Cl)cc2Cl)c(=O)n1C(F)F [salfentrazone, Sulfentrazone]
inhibition at 1.5 g/ha (Setaria viridis; Setaria viridis, 480 h, solo C salfentrazone 1.5 g ai/ha, SETVI, read-out: % activity 20 DAT): 30%
inhibition at 1.5 g/ha (Abutilon theophrasti; Abutilon theophrasti, 480 h, solo C salfentrazone 1.5 g ai/ha, ABUTH, read-out: % activity 20 DAT): 40%

CS(=O)(=O)c1ccc(C(=O)C2C(=O)CCCC2=O)c(Cl)c1 [sulcotrione, Sulcotrione]
% activity 20 DAT (Echinochloa crus-galli; solo C 2.5 g ai/ha): 30%
% activity 20 DAT (Brachiaria decumbens; solo C 5.0 g ai/ha, 20 DAT): 0%
pest or weed control at 20 g/ha (Abutilon theophrasti; Abutilon theophrasti, 480 h, read-out: % activity 20 DAT): 85%

CS(=O)(=O)c1ccc(C(=O)C2C(=O)CCCC2=O)c(Cl)c1COCC(F)(F)F [tembotrione, Tembotrione]
inhibition at 1 g/ha (Setaria viridis; Setaria viridis, 480 h, solo C tembotrione 1.0 g ai/ha, SETVI, read-out: % activity 20 DAT): 0%
inhibition at 1 g/ha (Avena fatua; Avena fatua, 480 h, solo C tembotrione 1.0 g ai/ha, read-out: % activity 20 DAT): 10%
inhibition at 1 g/ha (Abutilon theophrasti; Abutilon theophrasti, 480 h, solo C tembotrione 1.0 g ai/ha, ABUTH, read-out: % activity 20 DAT): 10%
inhibition at 0.5 g/ha (Amaranthus retroflexus; Amaranthus retroflexus, 480 h, solo C tembotrione 0.5 g ai/ha, read-out: % activity 20 DAT): 80%

Cc1c(C(=O)c2cnn(C)c2O)ccc(S(C)(=O)=O)c1C1=NOCC1 [topramezone, Topramezone]
% activity 20 DAT (Digitaria sanguinalis; solo C 0.25 g ai/ha, 20 DAT): 10%
% activity 20 DAT (Echinochloa crus-galli; solo C 0.25 g ai/ha): 20%
% activity 20 DAT (Avena fatua; solo C 0.25 g ai/ha): 10%
% activity 20 DAT (Abutilon theophrasti; ABUTH, solo C 0.25 g ai/ha, 20 DAT): 0%

Bicyclopyrone
% activity 20 DAT (Setaria viridis; SETVI, solo C 1.0 g ai/ha, 20 DAT): 0%
% activity 20 DAT (Echinochloa crus-galli; solo C 20.0 g ai/ha): 75%
% activity 20 DAT (Avena fatua; solo C 2.0 g ai/ha): 0%
